According to patent US10071960B1, “Enaminone-grafted trithiocarbonate with anticancer and antimicrobial activity” (KING SAUD UNIVERSITY, priority 2017, dated 2018):
≈ marks a conversion by molar mass, not a printed value.

How the values were obtained:
[1] = system: Candida albicans ATCC 60193; experiment: In vitro antimicrobial activity (MIC, MFC); format: cell-based; details: C. albicans; FIGS. 4 and 5
Procedure: (§1) Biological activity of compound 3 as antimicrobial agents was performed according to (Lam et al. 2016). Lyophilized cultures of Streptococcus nutans ATCC 35668, Bacillus subtilis and Brevibacillus laterosporus Wild strains (Gram positive bacteria), Salmonella typhi Wild strain (Gram negative bacteria), Candid albicans ATCC 60193 (yeast), Cryptococcus neoformans Wild strain (yeast), Aspergillus fumigatus AUMC 8794 (mold), and Penicillium chrysogenum AUMC (mold) were grown aerobically on the appropriate medium and in incubating conditions before minimal inhibitory, minimal Bactericidal, and minimal fungicidal concentration testing (MIC, MBC, and MFC). […]
(§2) The total count of microbes was counted by measurement of bacterial and yeast cells; and spores of mold using hemocytometer and account at 400×.
(§3) The bacterial suspensions were prepared from bacterial cultures which gave an optical density reading of ˜0.9 at 620 nm. […]
(§4) To determine MIC of the compound 3, a Mueller-Hinton broth and Potato dextrose broth were used for bacteria and fungi, respectively. […] After incubation, the microbial growth was detected in the wells by p-iodonitrotetrazolium violet (Sigma, USA) reagent. […] Data are expressed as mean±s.d. of the biological replicates and statistically analyzed using One-Way ANOVA analysis using Tukey test (P<0.05) (SPSS, 13.0).

[2] = system: Cryptococcus neoformans Wild strain; experiment: In vitro antimicrobial activity (MIC, MFC); format: cell-based; details: Cr. neformans; FIGS. 4 and 5
Procedure: as §1, §2, §3, §4

[3] = system: Brevibacillus laterosporus Wild strain; experiment: In vitro antimicrobial activity (MIC, MBC); format: cell-based; details: FIGS. 4 and 5
Procedure: as §1, §2, §3, §4

Bacillus subtilis = experiment: In vitro antimicrobial activity (MIC, MBC); format: cell-based; details: FIGS. 4 and 5
Procedure: as §1, §2, §3, §4

LoVo Colon cancer cells [4] = experiment: MTT antiproliferative assay, LoVo; format: cell-based; details: Homo sapiens, 48 hours
Procedure: (§5) HepG2 (human hepatocarcinoma), LoVo (human colorectal adenocarcinoma) and MDA-MB-231 (human breast cancer) cancer cell lines were selected for the in vitro antiproliferative activity. Cells were seeded in 24-well plates at a density of 50,000 cells/well for 24 hours for adherent. After 24 hours, cells were treated with increasing concentrations of compound 3 or an equal volume of vehicle (DMSO) as a control and were incubated for 48 hours. 100 μL of MTT reagent (5 mg/ml) were added. The plates were incubated for 2 hours and absorbance was determined at 540 nm in an ELISA plate reader (Thermo, USA). Percentages of cell survival were calculated as follows: % cell survival=(absorbance of treated cells/absorbance of cells with vehicle solvent)×100. The 50% inhibitory concentration (IC50) was calculated from the dose-response curve obtained by plotting the percentage of cell survival versus the concentration of compound 3.

[5] = system: Hepg2, LoVo, and MDA-MB-231 cell lines; experiment: MTT growth inhibition, all three tested human tumor cells; format: cell-based; details: 48 hours, read-out: IC50 concentrations, range over all three tested human tumor cells
Procedure: as §5

[6] = system: MDA-MB-231 Breast Cancer cells; experiment: MTT antiproliferative assay, MDA-MB-231; format: cell-based; details: Homo sapiens, MDA-MB-231 cells, 48 hours
Procedure: as §5

LoVo Colon cancer cells [7] = experiment: LDH release cytotoxicity assay, LoVo; format: cell-based, human; details: treated with IC50 for 48 hours; FIGS. 7 and 8A-8F
Procedure: Lactate dehydrogenase (LDH) assay was performed to assess the LDH release into the media following compound 3 treatments (IC50) on HepG2, LoVo and MDA-MB-231 cells after 48 hours of incubation. LDH cytotoxicity assay was carried out using an in vitro toxicology assay kit (Sigma Aldrich Inc., USA), according to protocol in the user's manual. The amount of LDH released in culture media was measured at 490 nm using an ELISA plate reader (Thermo, USA).

HepG2 Liver cancer cells = experiment: MTT antiproliferative assay, HepG2; format: cell-based; details: Homo sapiens, 48 hours
Procedure: as §5

In the case of `CCOC(=O)C(=CN(C)C)SC(=S)SC(=CN(C)C)C(=O)OCC` (stereo in doubt) [compound 3, (Z)-ethyl 3-(dimethylamino)-2-(((((Z)-1-(dimethylamino)-3-ethoxy-3-oxoprop-1-en-2-yl)thio)carbonothioyl)thio)acrylate], the “MIC, MBC and MFC: susceptibility compared to other tested microbes” value [1] is reported as “more susceptible”, the “MIC, MBC and MFC: susceptibility compared to other tested microbes” value [2] is reported as “more susceptible” and the “MIC, MBC and MFC: susceptibility compared to other tested microorganisms” value [3] is reported as “resistant”. The “MIC, MBC and MFC: susceptibility compared to other tested microorganisms” value (Bacillus subtilis) was “resistant”, the IC50 (LoVo Colon cancer cells [4]) was 37.5 µg/mL (≈ 95.5 µM) and the IC50 [5] was 37.5 to 45 µg/mL (≈ 95.5 to 115 µM). The IC50 [6] was 45 µg/mL (≈ 115 µM), the “cytotoxic effects (LDH release, morphology) compared between tumor cell lines” value (LoVo Colon cancer cells [7]) was “more active” and the IC50 (HepG2 Liver cancer cells) was 38 µg/mL (≈ 96.8 µM).
